{"source": "patent US20150150768A1", "about": "“Furan Based Composition” (Los Alamos National Security LLC, priority 2013, published 2015)", "key": {"[1]": {"assay": "Solubility of system at 1 wt % with hardness", "format": "physicochemical", "text": "Stock solutions of all species were made at 1% by weight in deionized water. […] […] […] Additionally a modified LAS (MLAS) was chosen for comparison."}, "[2]": {"assay": "Dynamic interfacial tension analysis (dIFT), ascending canola oil drop in aqueous surfactant solution", "format": "physicochemical", "details": "200 ppm surfactant, pH 8.3-8.5, canola oil", "experimental": "Method—Dynamic Interfacial Tension Analysis (dIFT) Dynamic Interfacial Tension analysis was performed on a Krüss® DVT30 Drop Volume Tensiometer (Krüss USA, Charlotte, N.C.). The instrument was configured to measure the interfacial tension of an ascending oil drop in the aqueous surfactant solution. The oil used was canola oil (Crisco Pure Canola Oil manufactured by The J.M. Smucker Company). The aqueous surfactant and oil phases were temperature controlled at 21.1° C. (+/−1° C.), via a recirculating water temperature controller attached to the tensiometer. A dynamic interfacial tension curve was generated by dispensing the oil drops into the aqueous surfactant phase from an ascending capillary with an internal diameter of 0.2540 mm, over a range of flow rates and measuring the interfacial tension at each flow rate. Data is generated at oil dispensing flow rates of 500 μL/min to 1 μL/min with 2 flow rates per decade on a logarithmic scale (7 flow rates measured in this instance). Interfacial tension was measured on three oil drops per flow rate and then averaged. Interfacial tension was reported in units of mN/m. Surface age of the oil drops at each flow rate is also recorded and plots can be generated either of interfacial tension (y-axis) versus oil flow rate (x-axis) or interfacial tension (y-axis) versus oil drop surface age (x-axis). […] Example of analysis of a 200 ppm surfactant concentration, with water hardness (3:1 Ca:Mg) of 6 or 20 grains per gallon (gpg) as noted, 21.1° C., pH 8.3-8.5: Sample was analyzed as described above. Density settings for 21.1° C. were set at 0.917 g/ml for Canola Oil and 0.998 g/ml for aqueous surfactant phase (assumed to be the same as water since dilute solution). To a 100 ml volumetric flask was added 2.00 mL of 1% (wt/wt) Surfactant solution in deionized water and the volumetric is then filled to the mark with 6.12 gpg water for target 6 gpg solution or 20.408 gpg water for target 20 gpg solution, (3:1 CaCl2:MgCl2 solution) and mixed well. The solution was transferred to a beaker and the pH adjusted to 8.3-8.5 by addition of a few drops of 0.1 N NaOH or 0.1 N H2SO4. The solution is then loaded into the tensiometer measurement cell and analyzed. Total time from addition of hardness to surfactant to time loaded into tensiometer is 5 minutes. The following surfactants were analyzed via dIFT measurements. Surfactants were analyzed at a level of 200 ppm. Analysis conditions are in water of both 6 and 20 gpg Calcium/Magnesium water hardness level (3:1 calcium:magnesium), 21.1° C. and adjusted to pH 8.3-8.5."}, "[3]": {"details": "1% solution by weight in deionized water"}, "[4]": {"details": "1% solution by weight in deionized water, heated to approximately 55° C."}, "[5]": {"details": "aliquot of 1% solution diluted to 200 ppm with 6.122 gpg water"}, "[6]": {"details": "solution hardness 6 gpg (3:1 Calcium:Magnesium)"}, "[7]": {"details": "solution hardness 20 gpg (3:1 Calcium:Magnesium)"}}, "note": "Where two headings read alike, the source gives them in different places."}
{"compound": "CCCCCCCCCC(C)c1ccc(S(=O)(=O)[O-])o1.[Na+]", "note": "(centres unmarked) [C11 2-furan AFS, sodium 5-(undecan-2-yl)furan-2-sulfonate]", "values": [{"measurement": "Soluble at Room Temperature", "setting": "[1]; [3]", "value": "Yes"}, {"measurement": "Soluble after heating to ≈55° C.", "setting": "[1]; [4]", "value": "Yes"}, {"measurement": "Soluble after addition of 6 gpg hardness (for at least 30 minutes)", "setting": "[1]; [5]", "value": "Yes"}, {"measurement": "IFT @ 1 μL/min Oil Flowrate, 21.1° C.", "setting": "[2]; [6]", "value": 7.25, "unit": "mN/m"}, {"measurement": "IFT @ 1 μL/min Oil Flowrate, 21.1° C.", "setting": "[2]; [7]", "value": 4.03, "unit": "mN/m"}]}
{"compound": "CCCCCCCCCCCCc1ccc(S(=O)(=O)[O-])o1.[Na+]", "note": "[C12 1-furan AFS, sodium 5-dodecanfuran-2-sulfonate]", "values": [{"measurement": "IFT @ 1 μL/min Oil Flowrate, 21.1° C.", "setting": "[2]; [6]", "value": 0.31, "unit": "mN/m"}, {"measurement": "IFT @ 1 μL/min Oil Flowrate, 21.1° C.", "setting": "[2]; [7]", "value": 0.25, "unit": "mN/m"}]}
{"compound": "CCCCCCCCCCC(C)c1ccc(S(=O)(=O)[O-])o1.[Na+]", "note": "(centres unmarked) [C12 2-furan AFS, sodium 5-(dodecan-2-yl)furan-2-sulfonate]", "values": [{"measurement": "Soluble at Room Temperature", "setting": "[1]; [3]", "value": "Yes"}, {"measurement": "Soluble after heating to ≈55° C.", "setting": "[1]; [4]", "value": "Yes"}, {"measurement": "Soluble after addition of 6 gpg hardness (for at least 30 minutes)", "setting": "[1]; [5]", "value": "Yes"}, {"measurement": "IFT @ 1 μL/min Oil Flowrate, 21.1° C.", "setting": "[2]; [6]", "value": 1.15, "unit": "mN/m"}, {"measurement": "IFT @ 1 μL/min Oil Flowrate, 21.1° C.", "setting": "[2]; [7]", "value": 0.94, "unit": "mN/m"}]}
{"compound": "CCCCCCCCCCC(C)c1ccc(S(=O)(=O)O)cc1", "note": "(centres unmarked) [C12 2-phenyl LAS, reference compound]", "values": [{"measurement": "Soluble at Room Temperature", "setting": "[1]; [3]", "value": "No"}, {"measurement": "Soluble after heating to ≈55° C.", "setting": "[1]; [4]", "value": "Yes"}, {"measurement": "Soluble after addition of 6 gpg hardness (for at least 30 minutes)", "setting": "[1]; [5]", "value": "did not remain soluble and No"}]}
{"compound": "CCCCCCCCCCCCCc1ccc(S(=O)(=O)[O-])o1.[Na+]", "note": "[C13 1-furan AFS, sodium 5-tridecanfuran-2-sulfonate]", "values": [{"measurement": "Soluble after addition of 6 gpg hardness (for at least 30 minutes)", "setting": "[1]", "value": "Yes"}, {"measurement": "Soluble after heating to ≈55° C.", "setting": "[1]", "value": "Yes"}, {"measurement": "Soluble at Room Temperature", "setting": "[1]", "value": "No"}, {"measurement": "IFT @ 1 μL/min Oil Flowrate, 21.1° C.", "setting": "[2]; [6]", "value": 0.08, "unit": "mN/m"}, {"measurement": "IFT @ 1 μL/min Oil Flowrate, 21.1° C.", "setting": "[2]; [7]", "value": 0.08, "unit": "mN/m"}]}
{"compound": "sodium 5-dodecanfuran-2-sulfonate [C12 1-furan AFS]", "values": [{"measurement": "Soluble at Room Temperature", "setting": "[1]; [3]", "value": "No"}, {"measurement": "Soluble after heating to ≈55° C.", "setting": "[1]; [4]", "value": "Yes"}, {"measurement": "Soluble after addition of 6 gpg hardness (for at least 30 minutes)", "setting": "[1]; [5]", "value": "Yes"}]}
